Source: BindingDB's records for doi:10.1124/jpet.104.066761 (National Institutes of Health, 2004)
Square brackets hold non-standard residues; d marks the D form. Peptide text beside a SMILES is read from it. Nle = CCCC[C@H](N)C(=O)O; βAla = NCCC(=O)O

Key:
[1] = target: Gastrin-releasing peptide receptor (Homo sapiens) (UniProt P30550)
Neuromedin-B receptor = Neuromedin-B receptor (Homo sapiens, UniProt P28336)
[2] = target: T1, Bombesin receptor subtype-3 (Homo sapiens, UniProt P32247)
T1 sequence (P32247 whole entry): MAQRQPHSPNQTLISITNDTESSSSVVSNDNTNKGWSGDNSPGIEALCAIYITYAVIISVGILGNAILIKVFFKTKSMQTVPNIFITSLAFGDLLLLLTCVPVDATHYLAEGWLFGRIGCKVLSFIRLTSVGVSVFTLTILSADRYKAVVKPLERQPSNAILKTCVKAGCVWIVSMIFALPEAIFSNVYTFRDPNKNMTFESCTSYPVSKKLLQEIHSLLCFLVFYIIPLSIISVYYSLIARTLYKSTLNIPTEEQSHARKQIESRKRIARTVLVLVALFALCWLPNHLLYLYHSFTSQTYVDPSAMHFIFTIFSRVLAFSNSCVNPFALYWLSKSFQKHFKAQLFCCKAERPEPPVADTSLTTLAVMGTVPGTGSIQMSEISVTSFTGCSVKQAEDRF

[3] = target: Gastrin-releasing peptide receptor (Homo sapiens) (UniProt P30550); remark: listed apart in the source

Neuromedin-B receptor, sequence (P28336 whole entry): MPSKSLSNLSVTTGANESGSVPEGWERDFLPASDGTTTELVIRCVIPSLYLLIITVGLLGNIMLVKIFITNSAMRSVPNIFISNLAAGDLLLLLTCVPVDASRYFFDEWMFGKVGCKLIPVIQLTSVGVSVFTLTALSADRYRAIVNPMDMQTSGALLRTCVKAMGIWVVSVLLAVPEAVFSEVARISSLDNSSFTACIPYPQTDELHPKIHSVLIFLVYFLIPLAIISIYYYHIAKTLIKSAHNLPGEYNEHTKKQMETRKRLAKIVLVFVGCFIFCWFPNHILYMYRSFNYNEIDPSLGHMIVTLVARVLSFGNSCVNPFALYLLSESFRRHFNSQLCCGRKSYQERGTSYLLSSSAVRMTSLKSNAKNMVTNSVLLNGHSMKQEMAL
Gastrin-releasing peptide receptor (Homo sapiens), sequence (P30550 whole entry, looked up): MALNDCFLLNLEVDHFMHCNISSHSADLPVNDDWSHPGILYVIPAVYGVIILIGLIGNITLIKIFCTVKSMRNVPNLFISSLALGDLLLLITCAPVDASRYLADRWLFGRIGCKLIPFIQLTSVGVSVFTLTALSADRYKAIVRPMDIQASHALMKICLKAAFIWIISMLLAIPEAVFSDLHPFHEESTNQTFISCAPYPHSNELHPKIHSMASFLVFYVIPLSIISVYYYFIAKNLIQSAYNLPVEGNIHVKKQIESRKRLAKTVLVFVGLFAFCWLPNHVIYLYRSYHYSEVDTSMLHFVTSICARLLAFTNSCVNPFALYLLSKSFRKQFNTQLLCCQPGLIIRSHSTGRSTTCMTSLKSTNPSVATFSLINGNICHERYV

Row | Ki [1] | Ki (Neuromedin-B receptor) | Ki [2] | Ki [3] | Structure (SMILES)
1 | 0.11 µM |  |  |  | CCCC[C@H](NC(=O)[C@H](Cc1ccccc1)NC(=O)[C@H](Cc1cnc[nH]1)NC(=O)C[C@H](NC(=O)[C@@H](NC(=O)[C@H](C)NC(=O)[C@H](Cc1c[nH]c2ccccc12)NC(=O)[C@H](CCC(N)=O)NC(=O)[C@H](N)Cc1ccc(O)cc1)C(C)C)c1ccccc1)C(N)=O [CAS_0]
2 |  | 0.00055 µM | > 10 µM |  | CSCC[C@H](NC(=O)[C@H](Cc1ccccc1)NC(=O)[C@H](Cc1cnc[nH]1)NC(=O)CNC(=O)[C@@H](NC(=O)[C@H](C)NC(=O)[C@H](Cc1c[nH]c2ccccc12)NC(=O)[C@H](CC(C)C)NC(=O)[C@H](CC(N)=O)NC(=O)CN)[C@@H](C)O)C(N)=O [NMB]
3 | 0.085 µM | > 10 µM | 2.4 µM |  | CC(C)[C@H](NC(=O)[C@H](C)NC(=O)[C@H](Cc1c[nH]c2ccccc12)NC(=O)[C@H](CCC(N)=O)NC(=O)[C@H](N)Cc1ccc(O)cc1)C(=O)NCCC(=O)N[C@@H](Cc1cnc[nH]1)C(=O)N[C@@H](Cc1ccccc1)C(=O)NC[C@H](N)C(N)=O [NSC_0]
4 | 1.86 µM | 7.2 µM | 0.0082 µM |  | CCCC[C@H](NC(=O)[C@H](Cc1ccccc1)NC(=O)[C@H](Cc1c[nH]cn1)NC(=O)C[C@@H](NC(=O)[C@@H](NC(=O)[C@H](C)NC(=O)[C@H](Cc1c[nH]c2ccccc12)NC(=O)[C@H](CCC(N)=O)NC(=O)[C@H](N)Cc1ccc(O)cc1)C(C)C)c1ccc(Cl)cc1)C(N)=O [NSC_0]
5 | 0.151 µM | 2.4 µM | 0.0028 µM |  | CCCC[C@H](NC(=O)[C@H](Cc1ccccc1)NC(=O)[C@H](Cc1c[nH]cn1)NC(=O)C[C@@H](NC(=O)[C@@H](NC(=O)[C@H](C)NC(=O)[C@H](Cc1c[nH]c2ccccc12)NC(=O)[C@H](CCC(N)=O)NC(=O)[C@H](N)Cc1ccc(O)cc1)C(C)C)c1ccccc1)C(N)=O [NSC_0]
6 | 0.11 µM | 0.831 µM | 0.0158 µM |  | CCCC[C@H](NC(=O)[C@H](Cc1ccccc1)NC(=O)[C@H](Cc1cnc[nH]1)NC(=O)C[C@@H](NC(=O)[C@@H](NC(=O)[C@H](C)NC(=O)[C@H](Cc1c[nH]c2ccccc12)NC(=O)[C@H](CCC(N)=O)NC(=O)[C@H](N)Cc1ccc(O)cc1)C(C)C)c1cccc(Cl)c1)C(N)=O [NSC_0]
7 | 0.229 µM | 6.92 µM | 0.024 µM |  | CCCC[C@H](NC(=O)[C@H](Cc1ccccc1)NC(=O)[C@H](Cc1cnc[nH]1)NC(=O)C[C@@H](NC(=O)[C@@H](NC(=O)[C@H](C)NC(=O)[C@H](Cc1c[nH]c2ccccc12)NC(=O)[C@H](CCC(N)=O)NC(=O)[C@H](N)Cc1ccc(O)cc1)C(C)C)c1ccccc1Cl)C(N)=O [NSC_0]
8 |  | 0.646 µM | 0.708 µM | 0.397 µM | CCCC[C@H](NC(=O)[C@H](Cc1ccccc1)NC(=O)[C@H](Cc1cnc[nH]1)NC(=O)C[C@H](NC(=O)[C@@H](NC(=O)[C@H](C)NC(=O)[C@H](Cc1c[nH]c2ccccc12)NC(=O)[C@H](CCC(N)=O)NC(=O)[C@H](N)Cc1ccc(O)cc1)C(C)C)C(=O)NCc1ccccc1)C(N)=O [NSC_0]
9 | 0.396 µM | 0.427 µM | 0.49 µM |  | CCCC[C@H](NC(=O)[C@H](Cc1ccccc1)NC(=O)[C@H](Cc1cnc[nH]1)NC(=O)C[C@H](NC(=O)[C@@H](NC(=O)[C@H](C)NC(=O)[C@H](Cc1c[nH]c2ccccc12)NC(=O)[C@H](CCC(N)=O)NC(=O)[C@H](N)Cc1ccc(O)cc1)C(C)C)C(=O)O)C(N)=O [NSC_0]
10 | 0.741 µM | 1.95 µM | 0.776 µM |  | CCCC[C@H](NC(=O)[C@H](Cc1ccccc1)NC(=O)[C@H](Cc1cnc[nH]1)NC(=O)C[C@H](NC(=O)[C@@H](NC(=O)[C@H](C)NC(=O)[C@H](Cc1c[nH]c2ccccc12)NC(=O)[C@H](CCC(N)=O)NC(=O)[C@H](N)Cc1ccc(O)cc1)C(C)C)c1ccc(Cl)cc1)C(N)=O [NSC_0]
11 | 2.51 µM | > 10 µM | 0.107 µM |  | CCCC[C@H](NC(=O)[C@H](Cc1ccccc1)NC(=O)[C@H](Cc1cnc[nH]1)NC(=O)C[C@H](NC(=O)[C@@H](NC(=O)[C@H](C)NC(=O)[C@H](Cc1c[nH]c2ccccc12)NC(=O)[C@H](CCC(N)=O)NC(=O)[C@H](N)Cc1ccc(O)cc1)C(C)C)c1cccc(Cl)c1)C(N)=O [NSC_0]
12 | 0.398 µM | 5.89 µM | 0.085 µM |  | CCCC[C@H](NC(=O)[C@H](Cc1ccccc1)NC(=O)[C@H](Cc1cnc[nH]1)NC(=O)C[C@H](NC(=O)[C@@H](NC(=O)[C@H](C)NC(=O)[C@H](Cc1c[nH]c2ccccc12)NC(=O)[C@H](CCC(N)=O)NC(=O)[C@H](N)Cc1ccc(O)cc1)C(C)C)c1ccccc1Cl)C(N)=O [NSC_0]
13 | 0.001 µM | 0.043 µM | 0.0023 µM |  | CCCC[C@H](NC(=O)[C@H](Cc1ccccc1)NC(=O)[C@H](Cc1cnc[nH]1)NC(=O)[C@@H](N)CNC(=O)[C@@H](NC(=O)[C@H](C)NC(=O)[C@H](Cc1c[nH]c2ccccc12)NC(=O)[C@H](CCC(N)=O)NC(=O)[C@H](N)Cc1ccc(O)cc1)C(C)C)C(N)=O [NSC_0]
14 | 0.0031 µM | 0.055 µM | 0.0123 µM |  | CCCC[C@H](NC(=O)[C@H](Cc1ccccc1)NC(=O)[C@H](Cc1cnc[nH]1)NC(=O)[C@H](CNC(=O)[C@@H](NC(=O)[C@H](C)NC(=O)[C@H](Cc1c[nH]c2ccccc12)NC(=O)[C@H](CCC(N)=O)NC(=O)[C@H](N)Cc1ccc(O)cc1)C(C)C)NC(=O)c1ccccc1)C(N)=O [NSC_0]
15 | 0.0017 µM | 0.089 µM | 0.0158 µM |  | CCCC[C@H](NC(=O)[C@H](Cc1ccccc1)NC(=O)[C@H](Cc1cnc[nH]1)NC(=O)[C@H](CNC(=O)[C@@H](NC(=O)[C@H](C)NC(=O)[C@H](Cc1c[nH]c2ccccc12)NC(=O)[C@H](CCC(N)=O)NC(=O)[C@H](N)Cc1ccc(O)cc1)C(C)C)NC(C)=O)C(N)=O [NSC_0]
16 |  | 0.0059 µM | 0.00082 µM |  | CCCC[C@H](NC(=O)[C@H](Cc1ccccc1)NC(=O)[C@H](Cc1cnc[nH]1)NC(=O)CCNC(=O)[C@@H](NC(=O)[C@H](C)NC(=O)[C@H](Cc1c[nH]c2ccccc12)NC(=O)[C@H](CCC(N)=O)NC(=O)[C@H](N)Cc1ccc(O)cc1)C(C)C)C(N)=O [NSC_0] (H-[dY]QWAV[βAla]HF[Nle]-NH2)
